Data published in patent EP1034273B1, “HISTAMINE AND SEROTONIN BINDING MOLECULES” (Evolutec Limited, priority 1997, dated 1999).
Where two headings read alike, the source gives them in different places.

Key:
recombinant D.RET6 = biological target: T1, recombinant D.RET6 (Dermacentor reticulatus, UniProt Q8WSK7); experiment: Competitive binding assay: unlabelled ligands displacing radioactive histamine from recombinant D.RET6; settings: graphically derived from competitive binding curve (Figure 15), read-out: IC50 of the unlabelled ligands in displacing the radioactive histamine from the binding site by 50%
T1 sequence (Q8WSK7 18-209): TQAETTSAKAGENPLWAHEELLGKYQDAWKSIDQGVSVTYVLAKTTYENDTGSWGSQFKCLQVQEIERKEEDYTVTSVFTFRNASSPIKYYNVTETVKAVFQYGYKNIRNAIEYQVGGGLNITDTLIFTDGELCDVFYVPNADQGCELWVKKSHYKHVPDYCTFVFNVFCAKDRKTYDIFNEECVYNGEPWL
Protocol: (§1) The recombinant D.RET6 was diluted with 1.5% γ-globulin (Sigma) and used in one set of experiments. Fifty microlitres of the protein solution were incubated with 50 µl of 1:2500 dilution of [2,5-^3H] histamine diHCl (1µCi/µl) solution (Amersham) at room temperature for at least 3 hours with or without increasing concentrations of unlabelled histamine. All the assays were carried out in a total volume of 200 µl. The incubations were terminated by adding 125 µl of PEG 8000 (36% w/v in PBS) and centrifuged in a microfuge at maximum speed for 12 minutes to collect the bound protein. The tubes were spun once more to remove all supernatant without disturbing the pellets. Subsequently, pellets were redissolved in PBS. Three millilitres of liquid scintillation cocktail (Beckman) were added and the radioactivity measured using a liquid scintillation counter (Wallac, 1217 Rackbeta).
In a second set of experiments, a competitive binding assay was used to compare three unlabelled competitor ligands (histamine, 1-methylhistamine and 3-methylhistamine).

[1] = biological target: recombinant D.RET6 (SEQ ID 4), Dermacentor reticulatus histamine-binding protein (Dermacentor reticulatus, UniProt Q8WSK7); experiment: biochemical
Protocol: as §1
To study the effect of serotonin on histamine binding activity, 10 µl of PBS (as a control experiment) or 10 µl serotonin (50 µM or 500 µM) were added to each 200 µl binding assay.
For data analysis, the ligand affinity constant was estimated from Scatchard plots as previously described by Hulme, 1992, Receptor-Ligand Interactions, IRL Press, Oxford). The nonlinear regression was used to fit the data (Motulsky, 1987, FASEB J, 1: 365-374) and two asymtotic straight lines were made as described elsewhere (Feldman, 1972, Analytical Biochem 48: 317).

[2] = biological target: Av-HBP (SEQ. ID. 6), semi-purified recombinant protein, Amblyomma variegatum; settings: read-out: equilibrium dissociation constant (Kd) for histamine; results not shown

## NCCc1c[nH]cn1 [histamine]
Recombinant D.RET6
  IC50: 133 nM
[1]; Kd, first (higher affinity) histamine binding site, final concentration of 2.38µM serotonin
  Kd: 1.1 nM
[1]; Kd, first (higher affinity) histamine binding site, no serotonin, approximate, from asymptotic lines of Scatchard plot
  Kd: ~60 nM
[1]; Kd, first (higher affinity) histamine binding site, with 23.8µM serotonin
  Kd: 1.3 nM
[1]; in the presence of serotonin versus no serotonin
  increase of binding affinity of D.RET6 for histamine: sixty-fold
[1]; read-out: Kd, second (lower affinity) histamine binding site, final concentration of 2.38µM serotonin
  Kd: 1000 nM
[1]; read-out: Kd, second (lower affinity) histamine binding site, no serotonin, approximate, from asymptotic lines of Scatchard plot
  Kd: ~2000 nM
[1]; read-out: Kd, second (lower affinity) histamine binding site, with 23.8µM serotonin
  Kd: 1000 nM
[2]
  Kd: ~7.3 nM
